Laboratory results from paper PMC11117721, “A Fast-Binding, Functionally Reversible, COX-2 Radiotracer for CNS PET Imaging” (ACS Central Science, 2024).

Target: T1, COX-2 (Homo sapiens, UniProt P35354)
T1 sequence (P35354 18-604): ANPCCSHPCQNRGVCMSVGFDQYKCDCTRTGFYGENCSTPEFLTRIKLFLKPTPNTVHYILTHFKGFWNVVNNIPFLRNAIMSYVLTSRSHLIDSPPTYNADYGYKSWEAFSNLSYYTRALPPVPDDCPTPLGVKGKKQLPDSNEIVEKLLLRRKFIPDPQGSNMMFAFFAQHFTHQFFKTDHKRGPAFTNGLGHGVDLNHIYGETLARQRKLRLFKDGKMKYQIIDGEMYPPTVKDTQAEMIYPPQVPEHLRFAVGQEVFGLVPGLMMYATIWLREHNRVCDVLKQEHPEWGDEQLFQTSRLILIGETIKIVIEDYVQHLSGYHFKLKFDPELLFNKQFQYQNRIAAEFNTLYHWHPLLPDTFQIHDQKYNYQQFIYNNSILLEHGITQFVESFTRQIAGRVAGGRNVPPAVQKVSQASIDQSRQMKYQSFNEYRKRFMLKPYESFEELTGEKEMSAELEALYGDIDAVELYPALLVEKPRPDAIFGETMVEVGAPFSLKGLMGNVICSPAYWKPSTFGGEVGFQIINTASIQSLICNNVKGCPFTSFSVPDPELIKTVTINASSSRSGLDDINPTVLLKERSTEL
Experiment: PET neuroimaging of rats with localized human COX-2 overexpression (intrastriatal AAV2-GFP-hCOX2)
Format: in vivo
Design: FLAG; P2A linker remnant (GFP cassette co-expressed, separated by P2A); host or cells: rat striatal (caudate putamen) neurons transduced in vivo with AAV2, human synapsin promoter
Details: COX-2 overexpression rat model
Procedure: Localized overexpression of human COX-2 was induced in rats with intrastriatal injections of AAV2-GFP-hCOX2 to the right caudate and AAV2-GFP (control virus) to the left caudate (Figure 2A).[53] Animals also received a systemic injection of mannitol to enhance vector spread and transgene expression.[54] To directly compare the kinetic profiles of the three COX-2 tracers, intrasubject imaging was performed in several rats. Each animal was scanned under baseline and competition (+celecoxib) conditions, testing each tracer within each animal (initial data in Figure 2). […] The full experimental design was then replicated (Figure S8 in the Supporting Information). An additional experiment lacking the control virus to the left caudate was performed to facilitate assessment of tracer uptake that could be mediated by the instrastiatal injection through blood brain barrier disruption (Figure S9 in the Supporting Information).
In accordance with Massachusetts General Hospital Institutional Animal Care and Use Committee (IACUC) protocols, Sprague Dawley rats (300-500g, Charles River Laboratories), wildtype mice (Strain […]
Respiratory rates and body temperature were monitored through all imaging and surgical procedures, generally using a respiratory pad and rectal probe. […]
Figure 9). […] Using a sterile ruler coordinates ML 2.5 mm; AP 0.5 mm was measured and marked respective t o bregma. […]

## [11CH3]S(=O)(=O)c1ccc(-c2cccc(NCc3ccoc3)n2)cc1 [[^11C]BRD1158]
  time of clear separation of right caudate PET signal from controls (left caudate and cerebellum): 10 min
